Legend:
[1] = tested on: various cancer cell strains (A549, H460, MCF-7, T-470, LoVo, SW480, HL-60, K562); assay: Cancer cell growth inhibition, WST-1 cell viability; assay type: cell-based, human; details: for selectivity of cell growth inhibitory effect, cancer versus non-cancer cell strains: cancer cell strains vs MRC-5 and MRC-9; for growth inhibitory effects on various cancer cell strains: concentration of 50 μM, WST-1
Procedure: Cancer cell growth inhibitory effects of the compounds PB01 and PB11 of Examples 5 and 3 identified as PPAR-γ ligands were evaluated. Growth inhibitory effects of the compounds PB01 and PB11 of Examples 5 and 3 on various cancer cells, including human non-small cell lung cancer cell strains (A549, H460), breast cancer cell strains (MCF-7, T-470), colorectal cancer cell strains (LoVo, SW480), and leukocytes cancer cell strains (HL-60, K562) (American Type Culture Collection, Manassas, Va.), were evaluated using WST-1 method. About 5×10^3 cells per well of each type of cancer cell strains were portioned into a 96-well plate, and incubated with different concentrations of each of the compounds PB01 and PB11 of Examples 5 and 3 in 200 ul of a culture solution for 24 hours, 48 hours, and 72 hours. After the incubation for the different durations, 10 ul of a WST-1 solution was added to each well, followed by incubation at about 37° C. for about 1 hour. Absorbance at 450 nm was measured to determine cell viability.

[2] = tested on: non-small cell lung cancer cell strain H460; assay: Radiation sensitivity measurement, colony formation; assay type: cell-based, human; details: 14 days
Procedure: About 500 cells of non-small cell lung cancer cell strain H460 were floated on each of 60-mm cell culture plates, and then incubated for about 24 hours. After the cells were stably fixed on the bottom of the cell culture plate, the cells were treated with ciglitazone (10 μM), PB01 (10 μM), or PB11 (5 μM, 10 μM), cultured for about 24 hours, and then irradiated with γ-radiation (3.2 Gy/min, Gammacell 3000; Atomic Energy of Canada, Ltd., Mississauga, ON, Canada) at doses of 2 Gy, 4 Gy, and 6 Gy. After incubation for 14 days, followed staining using a 1% crystal violet staining reagent solution (in methanol) to selectively count colonies having a diameter of about 0.5 mm or larger. SF (surviving fraction)=number of colonies formed/number of cells seeded×plating efficiency of the control group

[3] = tested on: non-small cell lung cancer cell strain A549; assay: LDH release; assay type: cell-based, human; details: 50 uM, 0 to 48 hours, compared to untreated
Procedure: (§1) After incubation of the non-small cell lung cancer cell strains A549 and H460 treated with the compound PB01 or PB11 for 8, 24, and 48 hours, only supernatants were recovered the culture products. The activity of lactate dehydrogenase (LDH) may be measured by detecting an amount of LDH released from the cell cytosol with a Cytotoxicity Detection Kit (available from Roche Applied Science, Indianapolis, Ind.). The amounts of LDH release induced by the compound PB01 or PB11 were calculated as a percentage amount of extracellular LDH released from the cells with respect to a total amount of LDH as a sum of the extracellular released LDH and the intracellular LDH remaining in the cells.

[4] = tested on: non-small cell lung cancer cell strain H460; assay: LDH release; assay type: cell-based, human; details: 50 uM, 0 to 48 hours, compared to untreated
Procedure: as §1

[5] = tested on: non-small cell lung cancer cells A549; assay: Sub-G1 phase cell number, propidium iodide flow cytometry; assay type: cell-based, human; details: 50 μM, 48 hours
Procedure: (§2) After incubation of the non-small cell lung cancer cells A549 and H460 treated with 50 μM of the compound PB01 or PB11 of Examples ?5 and 3 for 48 hours, the non-small cell lung cancer cells A549 and H460 were collected and floated with a 1×PBS (pH 7.4), followed by fixing at about −20° C. with a 70% cold ethanol, washing twice with a 1×PBS, and then staining with 10 μg/mL of propidium iodide (including 0.5% of PI, Tween-20, 100 μg/mL of 0.1% RNase) at room temperature for about 30 minutes. The stained cells were analyzed by flow cytometry with a FACScan™ (available from Becton Dicknson).

[6] = tested on: non-small cell lung cancer cells H460; assay: as above; assay type: cell-based, human; details: 50 μM, 48 hours
Procedure: as §2

3T3-L1 cells = assay: PPAR-γ ligand identification test: adipogenesis induction, Oil-Red-O staining; assay type: cell-based; details: 10 μM, about 48 hours
Procedure: The ability to induce adipogenesis of the compound PB11 of Example 3 and the compound PB01 of Example 5 was tested to identify whether the compounds PB11 and PB01 had activity of PPAR-γ ligands. 3T3-L1 cells (American Type Culture Collection, Manassas, Va.) were treated with 10 μM of the compounds PB11 or PB01 to induce adipogenesis. 3T3-L1 cells without any treatment, those treated with the same concentration of ciglitazone, and those treated with the same concentration of GW9662 (Cayman, Ann Arbor, Mich.) known as PPAR-γ ligand antagonist were used as control groups. After the induction of adipogenesis for about 48 hours, a degree of adipogenesis was identified by Oil-Red-O staining.
FIG. 1 illustrates the results of imaging degrees of adipogenesis via Oil-Red-O staining after the treatment of 3T3-L1 cells with control compounds and 10 μM of the compounds PB01 or PB11 of Examples 3 and 5 for about 48 hours to induce adipogenesis.

[7] = tested on: non-small cell lung cancer cell strain A549; assay: Nuclear agglutination and segmentation, Hoechst 33342 staining; assay type: cell-based, human; details: 50 uM, about 48 hours
Procedure: (§3) To observe typical nuclear morphological changes from cell death, the cells treated with the compounds PB01 or PB11 of Examples 5 and 3 were collected, followed by removing a supernatant. After 500 μl of a fixing solution as a 1:9 mixture of a 37% formaldehyde solution and PBS buffer solution was added into the remaining cells, thoroughly mixed together, and left at room temperature for about 10 minutes for fixation. After the fixed cells were centrifuged at about 2,000 rpm for about 5 minutes, the fixing solution was removed, and the remaining cells were floated in a PBS buffer solution. After dropping the floating cells onto a slide glass, followed by cytospinning at about 1,000 rpm for about 5 minutes to fix the floating cells onto the slide glass. The slide glass with the fixed cells was treated with 2 μg/mL of a Hoechst 33342 solution (Sigma, St. Louis, Mo., U.S.A), followed by staining at room temperature for about 20 minutes. After termination of the staining, the staining reagent was washed out, and nuclear morphological changes in the cancer cells were observed by florescent microscopy (ECLIPSE E600; Nikon, Tokyo, Japan) at a 400× magnification.

[8] = tested on: non-small cell lung cancer cell strain H460; assay: as above; assay type: cell-based, human; details: 50 uM, about 48 hours
Procedure: as §3

[9] = tested on: non-small cell lung cancer cell strain H460; assay: Morphological changes, inverted microscope 200×; assay type: cell-based, human; details: 50 μM, 48 hours
Procedure: After the incubation along with 50 μM of the compounds PB01 or PB11 for 48 hours, morphological changes in the non-small cell lung cancer cell strain H460 were observed using an inverted microscope at a magnification of 200×.

Structure (SMILES)	selectivity of cell growth inhibitory effect, cancer versus non-cancer cell strains [1]	growth inhibitory effects on various cancer cell strains [1]	effect as radiation sensitizer ([2]; 10 μM in combination with radiation at a dose of 4 Gy)	amount of extracellular LDH released [3]	amount of extracellular LDH released [4]	number of sub-G1 phase cells [5]	number of sub-G1 phase cells [6]	PPAR-γ ligand identification (3T3-L1 cells)	ability to induce adipogenesis (3T3-L1 cells)	nuclear morphological changes (apoptotic bodies) [7]	nuclear morphological changes (apoptotic bodies) [8]	morphological changes [9]	effect as radiation sensitizer ([2]; 5 μM in combination with radiation at a dose of 4 Gy)
COC1CCC(C(=O)Nc2ccc3nc(SCc4c(C)noc4C)sc3c2)CC1 (stereo not drawn) [PB01]	selectively only on cancer cell strains	prominent	significant effect as radiation sensitizers	increased with time	increased with time	sharp increase	sharp increase	found to be PPAR-γ ligands	outstanding ability to induce adipogenesis	increased apoptotic bodies due to nuclear agglutination	increased apoptotic bodies due to nuclear agglutination	lose adhesion with reduced density	
Cc1noc(C)c1CSc1nc2ccc(NC(=O)C3CCC(=O)CC3)cc2s1 [PB11]	selectively only on cancer cell strains	prominent		increased with time	increased with time	sharp increase	sharp increase	found to be PPAR-γ ligands	high activity in adipogenesis induction	increased apoptotic bodies due to nuclear agglutination	increased apoptotic bodies due to nuclear agglutination	lose adhesion with reduced density	significant effect as radiation sensitizers

— patent publication US9421193B2, “Benzothiazole derivatives and a use thereof for the treatment of cancer” (Korea Institute of Radiological & Medical Sciences, priority 2014, dated 2016)
